Assay results from patent publication US11696913B2, “Prolonged ectoparasite-controlling agent for animal” (MITSUI CHEMICALS AGRO, INC., priority 2017, dated 2023).

Legend:
[1] = tested on: Rhipicephalus (Boophilus) microplus; assay: In vitro injection test with Rhipicephalus (Boophilus) microplus (BOOPMI Inj); conditions: 168 h, laid fertile eggs after 7 days, read-out: acaricidal activity; for pest or weed control at 0.00016 mg: dose 0.16 μg/animal injected; for pest or weed control at 0.0008 mg: dose 0.8 μg/animal injected; for pest or weed control at 32 ng: dose 0.032 μg/animal injected
How it was run: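 Five engorged adult females each get a 1 μl abdominal injection of compound dissolved and diluted in DMSO. Kept 7 days at 28° C./85% rel. hum.; percent activity rates egg laying and egg fertility (0% all fertile, 100% none laid or infertile).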

Ctenocephalides felis [2] = assay: Ctenocephalides felis in-vitro feeding test with fleas (CTECFE oral); conditions: 48 hours, read-out: insecticidal feeding activity; for pest or weed control at 0.16 ppm: dose 0.16 ppm in citrated cattle blood; for pest or weed control at 0.8 ppm: dose 0.8 ppm in citrated cattle blood; for pest or weed control at 4 ppm: dose 4 ppm in citrated cattle blood; for pest or weed control at 0.032 ppm: dose 0.032 ppm in citrated cattle blood
How it was run: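 Scored as percent fleas killed (0–100%) 48 hours after feeding began. Compound, dissolved in DMSO and diluted into citrated cattle blood, was offered via a parafilm membrane to roughly 20 adult male and female C. felis at about 37° C.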

Plutella xylostella = assay: Insecticidal testing against diamondback moth; format: in vivo; conditions: foliar, 144 h, concentration 100 ppm, cabbage leaf dip, third-stage larvae, after 6 days, read-out: pesticidal rate
Source text: Insecticidal Testing Against Diamondback Moth (Plutella xylostella)

Amblyomma americanum = assay: In vitro contact test with hard ticks (Amblyomma americanum nymphs); conditions: read-out: acaricidal activity; for pest or weed control at 1 µg/cm2, 1 µg/cm2: dose 1 μg/cm^2, 48 h; for pest or weed control at 0.2 µg/cm2, 0.2 µg/cm2: dose 0.2 μg/cm^2, 48 h
How it was run: (§1)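 Acaricidal activity = % ticks dead or moribund after 48 h contact with acetone-deposited compound on vial walls (e.g., 900 ppm solution → 5 μg/cm^2). Ambient conditions for R. sanguineus, 21° C./85% rel. hum. for other species; heat challenge at 45-50° C. separated climbers from moribund ticks.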

Ctenocephalides felis [3] = assay: In vitro contact test with fleas; conditions: read-out: insecticidal activity; for pest or weed control at 0.2 µg/cm2, 0.2 µg/cm2: dose 0.2 μg/cm^2, dead or moribund fleas after 48 h; for pest or weed control at 1 µg/cm2, 1 µg/cm2: dose 1 μg/cm^2, dead or moribund fleas after 48 h
How it was run: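 Activity is the percentage of fleas dead or moribund at 48 h, judged by immobility or uncoordinated movement after tapping. Tubes were coated by evaporating acetone solutions (900 ppm gives 5 μg/cm^2), then held 5-10 adult fleas of both sexes at room temperature and ambient humidity.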

Laodelphax striatellus = assay: Insecticidal testing against small brown planthopper; format: in vivo; conditions: 144 h, concentration 100 ppm, sprayed rice seedlings, after 6 days, read-out: pesticidal rate
Description: Insecticidal Testing Against Small Brown Planthopper (Laodelphax striatellus)
An additional test was carried out with 10 small brown planthoppers by preparing an acetone solution of the testing compound diluted to a predetermined concentration, spraying the solution onto rice seedlings and air drying the rice seedlings. The medicament was all used as received. The rice seedlings were placed in a constant-temperature room at 25° C., and the survival rate was investigated after 6 days. The test was carried out by means of one group of 10 pests.

Rhipicephalus sanguineus = assay: In vitro contact test with adult hard ticks (Rhipicephalus sanguineus); conditions: read-out: acaricidal activity; for pest or weed control at 1 µg/cm2, 1 µg/cm2: dose 1 μg/cm^2, 48 h; for pest or weed control at 0.2 µg/cm2, 0.2 µg/cm2: dose 0.2 μg/cm^2, 48 h
How it was run: as §1

Spodoptera litura = assay: Insecticidal testing against common cutworm; format: in vivo; conditions: foliar, 144 h, concentration 100 ppm, cabbage leaf dip, second-stage larvae, after 6 days, read-out: pesticidal rate
Source text: Insecticidal Testing Against Common Cutworm (Spodoptera litura)

Dermacentor variabilis = assay: In vitro contact test with adult hard ticks (Dermacentor variabilis); conditions: read-out: acaricidal activity; for pest or weed control at 1 µg/cm2, 1 µg/cm2: dose 1 μg/cm^2, 48 h
How it was run: as §1

Compound	pest or weed control at 0.00016 mg [1]	pest or weed control at 0.0008 mg [1]	pest or weed control at 0.16 ppm (Ctenocephalides felis [2])	pest or weed control at 0.8 ppm (Ctenocephalides felis [2])	pest or weed control at 4 ppm (Ctenocephalides felis [2])	pest or weed control at 100 ppm (Plutella xylostella)	pest or weed control at 1 µg/cm2, 1 µg/cm2 (Amblyomma americanum)	pest or weed control at 0.2 µg/cm2, 0.2 µg/cm2 (Ctenocephalides felis [3])	pest or weed control at 1 µg/cm2, 1 µg/cm2 (Ctenocephalides felis [3])	pest or weed control at 100 ppm (Laodelphax striatellus)	pest or weed control at 1 µg/cm2, 1 µg/cm2 (Rhipicephalus sanguineus)	pest or weed control at 100 ppm (Spodoptera litura)	pest or weed control at 1 µg/cm2, 1 µg/cm2 (Dermacentor variabilis)	pest or weed control at 32 ng [1]	pest or weed control at 0.032 ppm (Ctenocephalides felis [2])	pest or weed control at 0.2 µg/cm2, 0.2 µg/cm2 (Amblyomma americanum)	pest or weed control at 0.2 µg/cm2, 0.2 µg/cm2 (Rhipicephalus sanguineus)	also measured
COc1ccc(C(=O)N(C)c2cccc(C(=O)Nc3c(I)cc(C(F)(C(F)(F)F)C(F)(F)F)cc3C(F)(F)F)c2F)cc1 [Compound 62]	100%	100%	95%	95%	95%	≥ 70%	90%	95%	95%	≥ 70%	90%	≥ 70%	90%	–	–	–	–	–
CN(C(=O)c1ccc(F)cc1)c1cccc(C(=O)Nc2c(Br)cc(C(F)(C(F)(F)F)C(F)(F)C(F)(F)F)cc2OC(F)(F)F)c1F (centres unmarked) [Compound 94]	100%	100%	95%	95%	95%	≥ 70%	90%	–	–	≥ 70%	90%	≥ 70%	90%	100%	95%	90%	90%	pest or weed control at 6.4 ng ([1]; dose 0.0064 μg/animal injected): 100%
CN(C(=O)c1ccc(Cl)cc1)c1cccc(C(=O)Nc2c(I)cc(C(F)(C(F)(F)F)C(F)(F)F)cc2C(F)(F)F)c1F [Compound 60]	100%	100%	95%	95%	95%	≥ 70%	90%	95%	95%	≥ 70%	90%	≥ 70%	90%	100%	–	90%	90%	–
CN(C(=O)c1ccc(C(F)(F)F)nc1)c1cccc(C(=O)Nc2c(I)cc(C(F)(C(F)(F)F)C(F)(F)F)cc2OC(F)(F)F)c1F [Compound 117, N-(2-fluoro-3-((2-iodo-4-(perfluoropropan-2-yl)-6-(trifluoromethoxy)phenyl)carbamoyl)phenyl)-N-methyl-6-(trifluoromethyl)nicotinamide]	100%	100%	95%	95%	95%	≥ 70%	90%	95%	95%	≥ 70%	90%	≥ 70%	–	100%	95%	–	90%	–
CN(C(=O)c1ccc(F)cc1F)c1cccc(C(=O)Nc2c(I)cc(C(F)(C(F)(F)F)C(F)(F)F)cc2C(F)(F)F)c1F [Compound 56]	100%	100%	95%	95%	95%	≥ 70%	90%	95%	95%	≥ 70%	–	≥ 70%	90%	100%	–	90%	–	pest or weed control at 0.04 µg/cm2, 0.04 µg/cm2 (Amblyomma americanum; dose 0.04 μg/cm^2, 48 h): 90%; pest or weed control at 0.04 µg/cm2, 0.04 µg/cm2 (Ctenocephalides felis [3]; dose 0.04 μg/cm^2, dead or moribund fleas after 48 h): 95%; pest or weed control at 0.2 µg/cm2, 0.2 µg/cm2 (Dermacentor variabilis; dose 0.2 μg/cm^2, 48 h): 90%
